Measured values published in patent publication US10647713B2 (Nimbus Lakshmi, Inc., priority 2016, dated 2020).

These compounds were tested against human TYK2 (JH2domain-pseudokinase) (Homo sapiens (Human), UniProt P29597) (assay: TYK2 JH2 Domain Binding Assay (KINOMEscan, DiscoveRx)). Conditions: 11-point dilution, duplicate.
Chain of human TYK2 (JH2domain-pseudokinase) (P29597 556-888): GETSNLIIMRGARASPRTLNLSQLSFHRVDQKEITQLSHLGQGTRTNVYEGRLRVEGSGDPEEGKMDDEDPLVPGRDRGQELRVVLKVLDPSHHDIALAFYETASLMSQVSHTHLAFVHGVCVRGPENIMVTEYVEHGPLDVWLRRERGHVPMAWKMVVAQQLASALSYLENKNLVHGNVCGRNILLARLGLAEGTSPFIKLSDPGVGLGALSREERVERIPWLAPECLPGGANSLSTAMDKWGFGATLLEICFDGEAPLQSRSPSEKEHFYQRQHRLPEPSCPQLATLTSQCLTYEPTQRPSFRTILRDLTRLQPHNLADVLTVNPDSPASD
Method: Binding constants for compounds of the present invention against the JH2 domain were determined by the following protocol for a KINOMEscan® assay (DiscoveRx). A fusion protein of a partial length construct of human TYK2 (JH2domain-pseudokinase) (amino acids G556 to D888 based on reference sequence NP_003322.3) and the DNA binding domain of NFkB was expressed in transiently transfected HEK293 cells. From these HEK 293 cells, extracts were prepared in M-PER extraction buffer (Pierce) in the presence of Protease Inhibitor Cocktail Complete (Roche) and Phosphatase Inhibitor Cocktail Set II (Merck) per manufacturers' instructions. The TYK2 (JH2domain-pseudokinase) fusion protein was labeled with a chimeric double-stranded DNA tag containing the NFkB binding site (5′-GGGAATTCCC-3′) fused to an amplicon for qPCR readout, which was added directly to the expression extract (the final concentration of DNA-tag in the binding reaction is 0.1 nM).
Streptavidin-coated magnetic beads (Dynal M280) were treated with a biotinylated small molecule ligand for 30 minutes at room temperature to generate affinity resins the binding assays. The liganded beads were blocked with excess biotin and washed with blocking buffer (SeaBlock (Pierce), 1% BSA, 0.05% Tween 20, 1 mM DTT) to remove unbound ligand and to reduce nonspecific binding.
The binding reaction was assembled by combining 16 μl of DNA-tagged kinase extract, 3.8 μl liganded affinity beads, and 0.18 μl test compound (PBS/0.05% Tween 20/10 mM DTT/0.1% BSA/2 μg/ml sonicated salmon sperm DNA)]. Extracts were used directly in binding assays without any enzyme purification steps at a ≥10,000-fold overall stock dilution (final DNA-tagged enzyme concentration <0.1 nM). Extracts were loaded with DNA-tag and diluted into the binding reaction in a two step process. First extracts were diluted 1:100 in 1× binding buffer (PBS/0.05% Tween 20/10 mM DTT/0.1% BSA/2 μg/ml sonicated salmon sperm DNA) containing 10 nM DNA-tag. This dilution was allowed to equilibrate at room temperature for 15 minutes and then subsequently diluted 1:100 in 1× binding buffer. Test compounds were prepared as 111× stocks in 100% DMSO. Kds were determined using an 11-point 3-fold compound dilution series with three DMSO control points. All compounds for Kd measurements are distributed by acoustic transfer (non-contact dispensing) in 100% DMSO. The compounds were then diluted directly into the assays such that the final concentration of DMSO was 0.9%. All reactions performed in polypropylene 384-well plates. Each was a final volume of 0.02 mL. Assays were incubated with shaking for 1 hour at room temperature. Then the beads were pelleted and washed with wash buffer (1×PBS, 0.05% Tween 20) to remove displaced kinase and test compound. The washed based were re-suspended in elution buffer (1×PBS, 0.05% Tween 20, 0.5 μM non-biotinylated affinity ligand) and incubated at room temperature with shaking for 30 minutes. The kinase concentration in the eluates was measured by qPCR. qPCR reactions were assembled by adding 2.5 μL of kinase eluate to 7.5 μL of qPCR master mix containing 0.15 μM amplicon primers and 0.15 μM amplicon probe. The qPCR protocol consisted of a 10 minute hot start at 95° C., followed by 35 cycles of 95° C. for 15 seconds, 60° C. for 1 minute.
Test compounds were prepared as 111× stocks in 100% DMSO. Kds were determined using an 11-point 3-fold compound dilution series with three DMSO control points. All compounds for Kd measurements are distributed by acoustic transfer (non-contact dispensing) in 100% DMSO. The compounds were then diluted directly into the assays such that the final concentration of DMSO was 0.9%. The Kds were determined using a compound top concentration of 30,000 nM. Kd measurements were performed in duplicate.
Binding constants (Kds) were calculated with a standard dose-response curve using the Hill equation: […]
The Hill Slope was set to −1. […]
With `COc1c(Nc2cc(Nc3cnc(C)c(C#N)n3)nc3[nH]c(C(F)F)nc23)cccc1-c1nnn(C)n1` [I-38, 6-((2-(difluoromethyl)-7-((2-methoxy-3-(2-methyl-2H-tetrazol-5-yl)phenyl)amino)-3H-imidazo[4,5-b]pyridin-5-yl)amino)-3-methylpyrazine-2-carbonitrile] the Kd was 1 to 10 nM.
`COc1c(Nc2cc(Nc3ccc(N4CC[C@H](OC)C4)c(C#N)n3)nc3[nH]c(C(F)F)nc23)cccc1-c1nnn(C)n1` [I-39, (S)-6-((2-(difluoromethyl)-7-((2-methoxy-3-(2-methyl-2H-tetrazol-5-yl)phenyl)amino)-3H-imidazo[4,5-b]pyridin-5-yl)amino)-3-(3-methoxypyrrolidin-1-yl)picolinonitrile] gave a Kd of 0.1 to 0.5 nM.
`COc1c(Nc2cc(Nc3ccc(N4CCC4)c(C#N)n3)nc3[nH]c(C(F)F)nc23)cccc1-c1nnn(C)n1` [I-40, 3-(azetidin-1-yl)-6-((2-(difluoromethyl)-7-((2-methoxy-3-(2-methyl-2H-tetrazol-5-yl)phenyl)amino)-3H-imidazo[4,5-b]pyridin-5-yl)amino)picolinonitrile] gave a Kd of 0.1 to 0.5 nM.
Compound `COc1c(Nc2cc(NC(=O)C3CC3)nc3[nH]c(C(F)F)nc23)cccc1-c1nc(C)nn1C` [I-41, N-(2-(difluoromethyl)-7-((3-(1,3-dimethyl-1H-1,2,4-triazol-5-yl)-2-methoxyphenyl)amino)-3H-imidazo[4,5-b]pyridin-5-yl)cyclopropanecarboxamide] has a Kd of over 10 nM.
Compound `COc1c(Nc2cc(Nc3ccc(C(C)C)c(C#N)n3)nc3[nH]c(C(F)F)nc23)cccc1-c1nnn(C)n1` [I-42, 6-((2-(difluoromethyl)-7-((2-methoxy-3-(2-methyl-2H-tetrazol-5-yl)phenyl)amino)-3H-imidazo[4,5-b]pyridin-5-yl)amino)-3-isopropylpicolinonitrile] has a Kd of 1 to 10 nM.
For `Cc1ccc(Nc2cc(Nc3ccccc3N(C)S(C)(=O)=O)c3nc(C(F)F)[nH]c3n2)nn1` [I-43, N-(2-((2-(difluoromethyl)-5-((6-methylpyridazin-3-yl)amino)-3H-imidazo[4,5-b]pyridin-7-yl)amino)phenyl)-N-methylmethanesulfonamide], the Kd was 0.1 to 0.5 nM.
`CN(c1ccccc1Nc1cc(Nc2cccc(C#N)n2)nc2[nH]c(C(F)F)nc12)S(C)(=O)=O` [I-44, N-(2-((5-((6-cyanopyridin-2-yl)amino)-2-(difluoromethyl)-3H-imidazo[4,5-b]pyridin-7-yl)amino)phenyl)-N-methylmethanesulfonamide] showed a Kd of under 0.1 nM.
In the case of `Cc1cc(Nc2cc(Nc3ccccc3N(C)S(C)(=O)=O)c3nc(C(F)F)[nH]c3n2)nc(C)n1` [I-45, N-(2-((2-(difluoromethyl)-5-((2,6-dimethylpyrimidin-4-yl)amino)-3H-imidazo[4,5-b]pyridin-7-yl)amino)phenyl)-N-methylmethanesulfonamide], the Kd is reported as 0.1 to 0.5 nM.
Compound `COc1c(Nc2cc(Nc3ccc(NCCCCl)c(C#N)n3)nc3[nH]c(C(F)F)nc23)cccc1-c1nnn(C)n1` [I-46, 3-((3-chloropropyl)amino)-6-((2-(difluoromethyl)-7-((2-methoxy-3-(2-methyl-2H-tetrazol-5-yl)phenyl)amino)-3H-imidazo[4,5-b]pyridin-5-yl)amino)picolinonitrile] has a Kd of 0.5 to 1 nM.
`COc1c(Nc2cc(Nc3cnc(N4CCOCC4)c(C#N)n3)nc3[nH]c(C(F)F)nc23)cccc1-c1nnn(C)n1` [I-47, 6-((2-(difluoromethyl)-7-((2-methoxy-3-(2-methyl-2H-tetrazol-5-yl)phenyl)amino)-3H-imidazo[4,5-b]pyridin-5-yl)amino)-3-morpholinopyrazine-2-carbonitrile] gave a Kd of 1 to 10 nM.
For `COc1c(Nc2cc(Nc3cnc(N4CC[C@@H](OC)C4)c(C#N)n3)nc3[nH]c(C(F)F)nc23)cccc1-c1nnn(C)n1` [I-48, (R)-6-((2-(difluoromethyl)-7-((2-methoxy-3-(2-methyl-2H-tetrazol-5-yl)phenyl)amino)-3H-imidazo[4,5-b]pyridin-5-yl)amino)-3-(3-methoxypyrrolidin-1-yl)pyrazine-2-carbonitrile], the Kd was 1 to 10 nM.
Compound `COc1c(Nc2cc(Nc3ccc(C(C)(C)OC)c(C#N)n3)nc3[nH]c(C(F)F)nc23)cccc1-c1nnn(C)n1` [I-49, 6-((2-(difluoromethyl)-7-((2-methoxy-3-(2-methyl-2H-tetrazol-5-yl)phenyl)amino)-3H-imidazo[4,5-b]pyridin-5-yl)amino)-3-(2-methoxypropan-2-yl)picolinonitrile] has a Kd of over 10 nM.
In the case of `COC1CN(c2ccc(Nc3cc(NC(=O)C4CC4)nc4[nH]c(C(F)F)nc34)c(N(C)S(C)(=O)=O)c2)C1` [I-50, N-(2-(difluoromethyl)-7-((4-(3-methoxyazetidin-1-yl)-2-(N-methylmethylsulfonamido)phenyl)amino)-3H-imidazo[4,5-b]pyridin-5-yl)cyclopropanecarboxamide], the Kd is reported as 1 to 10 nM.
With `COc1c(Nc2cc(NC(=O)C3CC3)nc3[nH]c(C(F)F)nc23)cccc1-n1cnc(C)n1` [I-51, N-(2-(difluoromethyl)-7-((2-methoxy-3-(3-methyl-1H-1,2,4-triazol-1-yl)phenyl)amino)-3H-imidazo[4,5-b]pyridin-5-yl)cyclopropanecarboxamide] the Kd was over 10 nM.
Compound `COc1c(Nc2cc(NC(=O)C3CC3)nc3[nH]c(C(F)F)nc23)cccc1-c1nn(C)nc1C` [I-53, N-(2-(difluoromethyl)-7-((3-(2,5-dimethyl-2H-1,2,3-triazol-4-yl)-2-methoxyphenyl)amino)-3H-imidazo[4,5-b]pyridin-5-yl)cyclopropanecarboxamide] has a Kd of over 10 nM.
Compound `COc1c(Nc2cc(NC(=O)C3CC3)nc3[nH]c(C(F)F)nc23)cccc1-n1nc(C)nc1C` [I-54, N-(2-(difluoromethyl)-7-((3-(3,5-dimethyl-1H-1,2,4-triazol-1-yl)-2-methoxyphenyl)amino)-3H-imidazo[4,5-b]pyridin-5-yl)cyclopropanecarboxamide] has a Kd of over 10 nM.
With `COc1c(Nc2cc(NC(=O)C3CC3)nc3[nH]c(C(F)F)nc23)cccc1-n1ncnc1C` [I-55, N-(2-(difluoromethyl)-7-((2-methoxy-3-(5-methyl-1H-1,2,4-triazol-1-yl)phenyl)amino)-3H-imidazo[4,5-b]pyridin-5-yl)cyclopropanecarboxamide] the Kd was over 10 nM.
Work on `COc1c(Nc2cc(Nc3cnc(C(C)(C)OC)c(C)n3)nc3[nH]c(C(F)F)nc23)cccc1-c1nnn(C)n1` [I-56, 2-(difluoromethyl)-N7-(2-methoxy-3-(2-methyl-2H-tetrazol-5-yl)phenyl)-N5-(5-(2-methoxypropan-2-yl)-6-methylpyrazin-2-yl)-3H-imidazo[4,5-b]pyridine-5,7-diamines] yielded a Kd of 1 to 10 nM.
With `CS(=O)(=O)c1cc(Cl)ccc1Nc1cc(NC(=O)C2CC2)nc2[nH]c(C(F)F)nc12` [I-58, N-(7-((4-chloro-2-(methylsulfonyl)phenyl)amino)-2-(difluoromethyl)-3H-imidazo[4,5-b]pyridin-5-yl)cyclopropanecarboxamide] the Kd was 0.5 to 1 nM.
`Cc1ncc(Nc2cc(Nc3ccccc3N(C)S(C)(=O)=O)c3nc(C(F)F)[nH]c3n2)nc1C` [I-59, N-(2-((2-(difluoromethyl)-5-((5,6-dimethylpyrazin-2-yl)amino)-3H-imidazo[4,5-b]pyridin-7-yl)amino)phenyl)-N-methylmethanesulfonamide] showed a Kd of 0.1 to 0.5 nM.
`Cc1ccc(Nc2cc(Nc3ccccc3N(C)S(C)(=O)=O)c3nc(C(F)F)[nH]c3n2)nc1C#N` [I-60, N-(2-((5-((6-cyano-5-methylpyridin-2-yl)amino)-2-(difluoromethyl)-3H-imidazo[4,5-b]pyridin-7-yl)amino)phenyl)-N-methylmethanesulfonamides] gave a Kd of under 0.1 nM.
